Source: patent EP4800015A1, “AZABICYCLO DERIVATIVE AND PREPARATION METHOD THEREFOR, AND USE” (Zhejiang Hisun Pharmaceutical Co., Ltd., priority 2023, dated 2025)
pIC50: −log10 of the molar value.

Legend:
SW48 cells = test: Inhibition of SW48 cell proliferation (CellTiter-Glo); type: cell-based; conditions: Homo sapiens; SW48 cells (MSI-H), 120 hours
How it was run: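 SW48 (MSI-H) cells in L-15 with 10% FBS were seeded at 500 per well, cultured overnight at 37 °C, then exposed to compound at final concentrations of 10000 nM to 1.52 nM for 120 h. Viability was read by CellTiter-Glo luminescence, with inhibition relative to 0.1% DMSO. IC50 from nonlinear regression of log concentration versus inhibition.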

recombinant human WRN = biological target: T1, recombinant human WRN (Homo sapiens, UniProt Q14191); test: Inhibition of WRN enzyme activity (ATPase), ADP-Glo Kinase Assay; type: biochemical; conditions: WRN protein 5 nM, Flap 0.1 nM, ATP 30 µM; read-out: IC50
T1 construct: purchased BPS 101264
How it was run: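 Recombinant human WRN (5 nM) was preincubated with compound (1000–0.004 nM) for 15 min at room temperature. Flap26 5'-flap DNA (0.1 nM) and 30 µM ATP were then added for 10 min in Tris pH 7.5, MgCl2, NaCl, BSA, Pluronic buffer. ADP was detected by ADP-Glo luminescence, and IC50 was obtained by nonlinear regression versus a 0.1% DMSO control.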

RL95-2 cells = test: Inhibition of RL95-2 cell proliferation (CellTiter-Glo); type: cell-based; conditions: Homo sapiens; RL95-2 cells (MSI-H), 120 hours
How it was run: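 RL95-2 (MSI-H) cells, 500/well in DMEM/F12 with 10% FBS, adhered overnight, then treated 120 h at 37 °C, 5% CO2 with compound at final 1.52-10000 nM. Viability by CellTiter-Glo luminescence. Inhibition relative to 0.1% DMSO control; IC50 from nonlinear regression of log concentration versus inhibition.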

T1 sequence (Q14191 whole entry): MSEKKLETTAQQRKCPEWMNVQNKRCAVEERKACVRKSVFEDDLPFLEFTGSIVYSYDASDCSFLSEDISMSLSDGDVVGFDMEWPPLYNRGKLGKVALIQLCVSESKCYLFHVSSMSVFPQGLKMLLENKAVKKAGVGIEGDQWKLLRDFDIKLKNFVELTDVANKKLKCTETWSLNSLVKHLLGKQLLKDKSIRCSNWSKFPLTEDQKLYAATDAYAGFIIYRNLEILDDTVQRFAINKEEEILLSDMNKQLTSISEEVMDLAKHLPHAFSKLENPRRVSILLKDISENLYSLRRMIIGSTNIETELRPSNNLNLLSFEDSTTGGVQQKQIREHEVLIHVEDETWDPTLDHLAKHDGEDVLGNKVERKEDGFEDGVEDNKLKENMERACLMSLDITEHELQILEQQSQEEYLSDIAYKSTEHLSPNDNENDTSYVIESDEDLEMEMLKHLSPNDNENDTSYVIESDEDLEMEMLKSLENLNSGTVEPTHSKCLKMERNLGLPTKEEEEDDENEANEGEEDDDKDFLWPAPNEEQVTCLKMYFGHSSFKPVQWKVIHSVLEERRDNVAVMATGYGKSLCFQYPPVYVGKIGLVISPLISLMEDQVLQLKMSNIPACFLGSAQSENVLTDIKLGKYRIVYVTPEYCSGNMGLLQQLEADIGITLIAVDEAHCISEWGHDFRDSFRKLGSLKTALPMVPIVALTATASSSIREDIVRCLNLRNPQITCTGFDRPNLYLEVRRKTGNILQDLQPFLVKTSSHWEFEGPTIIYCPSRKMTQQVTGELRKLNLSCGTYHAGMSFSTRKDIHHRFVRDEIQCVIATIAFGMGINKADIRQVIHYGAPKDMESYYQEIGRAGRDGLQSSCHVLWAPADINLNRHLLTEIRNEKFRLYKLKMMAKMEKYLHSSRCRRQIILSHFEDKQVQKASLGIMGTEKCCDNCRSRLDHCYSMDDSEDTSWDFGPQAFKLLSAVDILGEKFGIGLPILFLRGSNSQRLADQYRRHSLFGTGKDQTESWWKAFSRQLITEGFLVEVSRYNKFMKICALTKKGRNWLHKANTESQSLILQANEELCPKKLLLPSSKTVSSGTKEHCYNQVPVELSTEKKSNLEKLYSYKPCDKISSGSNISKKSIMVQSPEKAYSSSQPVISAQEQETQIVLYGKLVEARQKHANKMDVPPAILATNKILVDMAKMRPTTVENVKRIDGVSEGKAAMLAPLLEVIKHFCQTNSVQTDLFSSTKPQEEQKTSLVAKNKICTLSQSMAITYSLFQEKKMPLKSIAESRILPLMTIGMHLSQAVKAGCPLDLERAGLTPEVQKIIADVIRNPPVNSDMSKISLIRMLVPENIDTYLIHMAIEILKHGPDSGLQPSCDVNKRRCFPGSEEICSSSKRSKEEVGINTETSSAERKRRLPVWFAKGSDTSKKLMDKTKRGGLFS

Row | SMILES | pIC50 (SW48 cells) | pIC50 (recombinant human WRN) | pIC50 (RL95-2 cells)
1 | CCc1c(N2CCN(C(=O)c3ncnc(C)c3O)CC2)c(=O)n2nc(-c3ccc4occc4c3)nc2n1CC(=O)Nc1ccc(S(F)(F)(F)(F)F)cc1Cl [Example 85, 2-(2-(Benzofuran-5-yl)-5-ethyl-6-(4-(5-hydroxy-6-methylpyrimidine-4-carbonyl)piperazin-1-yl)-7-oxo-[1,2,4]triazolo[1,5-a]pyrimidin-4(7H)-yl)-N-(2-chloro-4-(pentafluoro-λ^6-sulfaneyl)phenyl) acetamide] | 7.00 to 9.00 | 7.00 to 9.00 | 7.00 to 9.00
2 | CCc1c(N2CCN(C(=O)c3ncccc3O)CC2)c(=O)n2nc(C3=CC4COCC4C3)nc2n1CC(=O)Nc1ccc(C(F)(F)F)cc1Cl (stereo not drawn) [Example 159, N-(2-chloro-4-(trifluoromethyl)phenyl)-2-(5-ethyl-6-(4-(3-hydroxypicolinoyl)piperazin-1-yl)-7-oxo-2-(3,3a,4,6a-tetrahydro-1H-cyclopenta[c]furan-5-yl)-[1,2,4]triazolo[1,5-a]pyrimidin-4(7H)-yl) acetamide] | 7.00 to 9.00 | 7.00 to 9.00 | 7.00 to 9.00
3 | CCc1c(N2CCN(C(=O)c3ncnc(C)c3O)CC2)c(=O)n2nc(-c3ccc4c(c3)CCCO4)nc2n1CC(=O)Nc1ccc(C(F)(F)F)cc1Cl [Example 130, N-(2-chloro-4-(trifluoromethyl)phenyl)-2-(2-(chroman-6-yl)-5-ethyl-6-(4-(5-hydroxy-6-methylpyrimidine-4-carbonyl)piperazin-1-yl)-7-oxo-[1,2,4]triazolo[1,5-a]pyrimidin-4(7H)-yl)acetamide] | 7.00 to 9.00 | 7.00 to 9.00 | 7.00 to 9.00
4 | CCc1c(N2CCN(C(=O)c3ncnc(C)c3O)CC2)c(=O)n2nc(-c3ccc4c(c3)CNCCO4)nc2n1CC(=O)Nc1ccc(C(F)(F)F)cc1Cl [Example 142, N-(2-chloro-4-(trifluoromethyl)phenyl)-2-(5-ethyl-6-(4-(5-hydroxy-6-methylpyrimidine-4-carbonyl)piperazin-1-yl)-7-oxo-2-(2,3,4,5-tetrahydrobenzo[f][1,4]oxazepin-7-yl)-[1,2,4]triazolo[1,5-a]pyrimidin-4(7H)-yl)acetamide] | 7.00 to 9.00 | 7.00 to 9.00 | 7.00 to 9.00
5 | [2H]C([2H])([2H])Sc1ccc(NC(=O)Cn2c(CC)c(N3CCN(C(=O)c4ncnc(C)c4O)CC3)c(=O)n3nc(-c4ccc5c(c4)CCO5)nc23)c(Cl)c1 [Example 147, N-(2-chloro-4-((methyl-d3)thio)phenyl)-2-(2-(2,3-dihydrobenzofuran-5-yl)-5-ethyl-6-(4-(5-hydroxy-6-methylpyrimidine-4-carbonyl)piperazin-1-yl)-7-oxo-[1,2,4]triazolo[1,5-a]pyrimidin-4(7H)-yl)acetamide] | 7.00 to 9.00 | 7.00 to 9.00 | 7.00 to 9.00
6 | CCc1c(N2CCN(C(=O)c3ncnc(C)c3O)CC2)c(=O)n2nc(-c3cc4c(s3)CCNC4)nc2n1CC(=O)Nc1ccc(C(F)(F)F)cc1Cl [Example 134, N-(2-chloro-4-(trifluoromethyl)phenyl)-2-(5-ethyl-6-(4-(5-hydroxy-6-methylpyrimidine-4-carbonyl)piperazin-1-yl)-7-oxo-2-(4,5,6,7-tetrahydrothieno[3,2-c]pyridin-2-yl)-[1,2,4]triazolo[1,5-a]pyrimidin-4(7H)-yl)acetamide] | 7.00 to 9.00 | 7.00 to 9.00 | 7.00 to 9.00
7 | CCc1c(N2CCN(C(=O)c3ncnc(C)c3O)CC2)c(=O)n2nc(C3=CCC4(CC3)CC4)nc2n1CC(=O)Nc1ccc(S(F)(F)(F)(F)F)cc1 [Example 120, 2-(5-ethyl-6-(4-(5-hydroxy-6-methylpyrimidine-4-carbonyl)piperazin-1-yl)-7-oxo-2-(spiro[2.5]oct-5-en-6-yl)-[1,2,4]triazolo[1,5-a]pyrimidin-4(7H)-yl)-N-(4-(pentafluoro-λ6-sulfaneyl)phenyl)ace tamide] | 7.00 to 9.00 | 7.00 to 9.00 | 7.00 to 9.00
8 | CCc1c(N2CCN(C(=O)c3ncccc3O)CC2)c(=O)n2nc(C3=CC4CC(O)CC4C3)nc2n1CC(=O)Nc1ccc(S(F)(F)(F)(F)F)cc1 (stereo not drawn) [Example 178, 2-(5-ethyl-2-(5-hydroxy-1,3a,4,5,6,6a-hexahydropentalen-2-yl)-6-(4-(3-hydroxypicolinoyl)piperazin-1-yl)-7-oxo-[1,2,4]triazolo[1,5-a]pyrimidin-4(7H)-yl)-N-(4-(pentafluoro-λ^6-sulfaneyl)phenyl) acetamide] | 7.00 to 9.00 | > 9.00 | 7.00 to 9.00
9 | CCc1c(N2CCN(C(=O)c3ncnc(C)c3O)CC2)c(=O)n2nc(-c3ccc4nn(C)cc4c3)nc2n1CC(=O)Nc1ccc(C(F)(F)F)cc1Cl [Example 99, N-(2-Chloro-4-(trifluoromethyl)phenyl)-2-(5-ethyl-6-(4-(5-hydroxy-6-methylpyrimidine-4-carbonyl)piperazin-1-yl)-2-(2-methyl-2H-indazol-5-yl)-7-oxo-[1,2,4]triazolo[1,5-a]pyrimidin-4(7H)-yl)acetamide] | 7.00 to 9.00 | 7.00 to 9.00 | 7.00 to 9.00
10 | CCc1c(N2CCN(C(=O)c3ncnc(C)c3O)CC2)c(=O)n2nc(C3=CC4CC(=O)CC4C3)nc2n1CC(=O)Nc1ccc(C(F)(F)F)cc1Cl (stereo not drawn) [Example 17, N-(2-chloro-4-(trifluoromethyl)phenyl)-2-(5-ethyl-6-(4-(5-hydroxy-6-methylpyrimidine-4-carbonyl)piperazin-1-yl)-7-oxo-2-(5-oxo-1,3a,4,5,6,6a-hexahydropentalen-2-yl)-[1,2,4]triazolo[1,5-a]pyrimidin-4(7H)-yl)acetamide] | 7.00 to 9.00 | 7.00 to 9.00 | 7.00 to 9.00
11 | CCc1c(N2CCN(C(=O)c3nc(C)ncc3O)CC2)c(=O)n2nc(-c3ccc4c(c3)CCO4)nc2n1CC(=O)Nc1ccc(C(F)(F)F)cc1Cl [Example 150, N-(2-chloro-4-(trifluoromethyl)phenyl)-2-(2-(2,3-dihydrobenzofuran-5-yl)-5-ethyl-6-(4-(5-hydroxy-2-methylpyrimidine-4-carbonyl)piperazin-1-yl)-7-oxo-[1,2,4]triazolo[1,5-a]pyrimidin-4(7H)-yl)acetamide] | 7.00 to 9.00 | 7.00 to 9.00 | 7.00 to 9.00
12 | CCc1c(N2CCN(C(=O)c3ncnc(C)c3O)CC2)c(=O)n2nc(C3=CCCCOC3)nc2n1CC(=O)Nc1ccc(S(F)(F)(F)(F)F)cc1C [Example 158, 2-(5-ethyl-6-(4-(5-hydroxy-6-methylpyrimidine-4-carbonyl)piperazin-1-yl)-7-oxo-2-(2,5,6,7-tetra hydrooxepin-3-yl)-[1,2,4]triazolo[1,5-a]pyrimidin-4(7H)-yl)-N-(2-methyl-4-(pentafluoro-λ^6-sulfaneyl)phenyl)acetamide] | 7.00 to 9.00 | 7.00 to 9.00 | 7.00 to 9.00
13 | CCc1c(N2CCN(C(=O)c3nccc(Cl)c3O)CC2)c(=O)n2nc(C3=CC4COCC4C3)nc2n1CC(=O)Nc1ccc(C(F)(F)F)cc1Cl (stereo not drawn) [Example 188, 2-(6-(4-(4-chloro-3-hydroxypicolinoyl)piperazin-1-yl)-5-ethyl-7-oxo-2-(3,3a,4,6a-tetrahydro-1H-cyclopenta[c]furan-5-yl)-[1,2,4]triazolo[1,5-a]pyrimidin-4(7H)-yl)-N-(2-chloro-4-(trifluoromethyl)phenyl)acetamide] | 7.00 to 9.00 | 7.00 to 9.00 | 7.00 to 9.00
14 | CCc1c(N2CCN(C(=O)c3ncnc(C)c3O)CC2)c(=O)n2nc(-c3cnc4[nH]ccc4c3)nc2n1CC(=O)Nc1ccc(C(F)(F)F)cc1Cl [Example 101, N-(2-chloro-4-(trifluoromethyl)phenyl)-2-(5-ethyl-6-(4-(5-hydroxy-6-methylpyrimidine-4-carbonyl)piperazin-1-yl)-7-oxo-2-(1H-pyrrolo[2,3-b]pyridin-5-yl)-[1,2,4]triazolo[1,5-a]pyrimidin-4(7H) -yl)acetamide] | 7.00 to 9.00 | > 9.00 | 7.00 to 9.00
15 | CCc1c(N2CCN(C(=O)c3ncnc(C)c3O)CC2)c(=O)n2nc(-c3cccc4c3OCC4)nc2n1CC(=O)Nc1ccc(C(F)(F)F)cc1Cl [Example 154, N-(2-chloro-4-(trifluoromethyl)phenyl)-2-(2-(2,3-dihydrobenzofuran-7-yl)-5-ethyl-6-(4-(5-hydroxy-6-methylpyrimidine-4-carbonyl)piperazin-1-yl)-7-oxo-[1,2,4]triazolo[1,5-a]pyrimidin-4(7H)-yl)acetamide] | 7.00 to 9.00 | 7.00 to 9.00 | 7.00 to 9.00
16 | CCc1c(N2CCN(C(=O)c3ncnc(C)c3O)CC2)c(=O)n2nc(-c3ccc4sccc4c3)nc2n1CC(=O)Nc1ccc(C(F)(F)F)cc1Cl [Example 54, 2-(2-(benzo[b]thiophen-5-yl)-5-ethyl-6-(4-(5-hydroxy-6-methylpyrimidine-4-carbonyl)piperazin-1-yl)-7-oxo-[1,2,4]triazolo[1,5-a]pyrimidin-4(7H)-yl)-N-(2-chloro-4-(trifluoromethyl)phenyl)acet amide] | 7.00 to 9.00 | 7.00 to 9.00 | 7.00 to 9.00
